Values of other authors as cited in patent US20220054538A1, “ANTI-HELICOBACTER AGENT AND METHOD FOR THE USE THEREOF” (priority 2018, published 2022).

Tested on: Helicobacter pylori culture
Conditions: in vitro

calcium pectate
effect on Helicobacter pylori culture: significant effect
